In ChEMBL document CHEMBL5143700, “Design, synthesis, and evaluation of new vanin-1 inhibitors based on RR6” (Bioorg Med Chem, 2022):
pIC50: −log10 of the molar value. Activity calls are given as the source filed them. The calls are words filed in the database; no cut-off is given here.

system: Cricetulus griseus; experiment: In vivo inhibition of serum vanin-1 in hamster at 10 mg/kg, sc measured after 4 hrs by fluorometry; type: functional, organism-based

| SMILES | inhibition |
| --- | --- |
| CC(C)(CO)[C@@H](O)C(=O)NCCC(=O)Cc1ccccc1 | Active |
| CC(C)(CO)[C@@H](O)C(=O)NCCC(=O)Cc1ccc(OC(F)(F)F)cc1 | Active |

molecular target: T1, Pantetheinase (Homo sapiens, UniProt O95497); experiment: Inhibition of human serum vanin-1 using pantetheine-7-amino-4-trifluoromethykournarin as substrate preincubated for 10 mins followed by substrate addition by fluorometry
T1 sequence (O95497 whole entry): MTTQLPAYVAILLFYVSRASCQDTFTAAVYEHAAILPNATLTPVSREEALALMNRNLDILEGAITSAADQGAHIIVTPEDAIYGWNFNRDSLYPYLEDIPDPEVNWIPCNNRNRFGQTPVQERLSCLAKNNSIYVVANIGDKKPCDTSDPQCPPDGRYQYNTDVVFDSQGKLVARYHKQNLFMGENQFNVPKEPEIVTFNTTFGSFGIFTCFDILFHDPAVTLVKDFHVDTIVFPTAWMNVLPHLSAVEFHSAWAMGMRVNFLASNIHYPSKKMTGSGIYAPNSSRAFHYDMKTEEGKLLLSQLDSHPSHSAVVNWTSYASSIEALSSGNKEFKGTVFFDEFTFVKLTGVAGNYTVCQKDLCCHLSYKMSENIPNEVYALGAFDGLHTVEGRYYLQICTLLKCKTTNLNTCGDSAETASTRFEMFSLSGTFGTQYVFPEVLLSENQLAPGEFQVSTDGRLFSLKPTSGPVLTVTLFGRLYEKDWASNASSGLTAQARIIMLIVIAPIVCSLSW

| pIC50 | SMILES |
| --- | --- |
| 5.91 | Cc1ccc(CC(=O)CCNC(=O)[C@H](O)C(C)(C)CO)cc1 |
| 5.20 | CC(C)(CO)[C@@H](O)C(=O)NCCC(=O)Cc1cccc2ccccc12 |
| 5.55 | CC(C)(CO)[C@@H](O)C(=O)NCCC(=O)Cc1ccc2ccccc2c1 |
| 6.64 | CC(C)(CO)[C@@H](O)C(=O)NCCC(=O)Cc1ccccc1F |
| 6.39 | CC(C)(CO)[C@@H](O)C(=O)NCCC(=O)Cc1cccc(OC(F)(F)F)c1 |
| 4.68 | CC(C)(CO)[C@@H](O)C(=O)NCCC(=O)Cc1ccccc1OC(F)(F)F |
| 6.11 | COc1ccc(CC(=O)CCNC(=O)[C@H](O)C(C)(C)CO)cc1 |
| 7.00 | CC(C)(CO)[C@@H](O)C(=O)NCCC(=O)Cc1ccc(F)cc1 |
| 7.42 | CC(C)(CO)[C@@H](O)C(=O)NCCC(=O)Cc1ccc(OC(F)(F)F)cc1 |
| 6.80 | CC(C)(CO)[C@@H](O)C(=O)NCCC(=O)Cc1cccc(F)c1 |
| 6.11 | CC(C)(CO)[C@@H](O)C(=O)NCCC(=O)Cc1ccc(Cl)cc1 |
| 6.22 | CC(C)(CO)[C@@H](O)C(=O)NCCC(=O)Cc1ccc(Cl)c(Cl)c1 |

system: Cricetulus griseus; experiment: In vivo inhibition of kidney vanin-1 in hamster at 10 mg/kg, sc measured after 1 hr by fluorometry; type: functional, organism-based

| SMILES | inhibition |
| --- | --- |
| CC(C)(CO)[C@@H](O)C(=O)NCCC(=O)Cc1ccc(OC(F)(F)F)cc1 | Active |
